In US9499550B2 (BRISTOL-MYERS SQUIBB COMPANY, priority 2012, dated 2016):
Where two headings read alike, the source gives them in different places.

Key:
[1] = test system: HCV genotype 1b (Con1) replicon in HUH-7 cells; test: HCV replicon luciferase reporter assay, genotype 1b; assay type: cell-based; settings: Hepatitis C virus, Huh-7, 72 h, 3 days incubation
Method in brief: (§1)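 Replicon inhibition for both genotypes was measured as Renilla luciferase signal (EnduRen, 7.5 μM final, 2 h) after 3-day, 37° C exposure of replicon-bearing HUH-7 cells in 4% FCS DMEM, 0.5% DMSO. The 1b construct carries S1179I; the 1a H77 construct carries P1496L and S2204I. Twenty-point, 3-fold dilutions were fitted four-parametrically for EC50, and CC50 was taken from multiplexed Cell Titer-Blue.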

[2] = test system: HCV genotype 1a (H77 strain) replicon in HUH-7 cells; test: HCV replicon luciferase reporter assay, genotype 1a; assay type: cell-based; settings: Hepatitis C virus, Huh-7, 72 h, 3 days incubation
Method in brief: as §1

[3] = GETYPE1B, HCV genotype 1b replicon luciferase, read-out: LE_1b (EC50, range)
[4] = GETYPE1A, HCV genotype 1a replicon luciferase, read-out: LE_1a (EC50, range)
[5] = HCV genotype 1b replicon luciferase, read-out: LE_1b (EC50, range)
[6] = HCV genotype 1a replicon luciferase, read-out: LE_1a (EC50, range)
[7] = HCV genotype 1b replicon luciferase assay, range class, read-out: LE_1b (EC50, range)
[8] = HCV genotype 1a replicon luciferase assay, range class, read-out: LE_1a (EC50, range)

| Compound | EC50 [1, 3] [nM] | EC50 [2, 4] [nM] | EC50 [1, 5] [nM] | EC50 [2, 6] [nM] | further results |
| --- | --- | --- | --- | --- | --- |
| COc1ccc2c(O[C@@H]3C[C@H]4C(=O)N[C@]5(C(=O)NS(=O)(=O)C6CC6)C[C@H]5/C=C\CC[C@H](C)C[C@@H](C)[C@H](NC(=O)OC(C)(C)C(F)(F)F)C(=O)N4C3)ncc(OC)c2c1 [Compound 4229] | < 5.46 | < 5.46 |  |  |  |
| COc1ccc2c(O[C@@H]3C[C@H]4C(=O)N[C@]5(C(=O)NS(=O)(=O)C6(F)CC6)C[C@H]5/C=C\CC[C@@H](C)C[C@@H](C)[C@H](NC(=O)OC(C)(C)C(F)(F)F)C(=O)N4C3)nccc2c1 [Compound 11] |  |  |  |  | EC50 ([1]; GETYPE1B, HCV genotype 1b replicon luciferase assay, range class, read-out: LE_1b (EC50, range)): < 5.46 nM; EC50 ([2]; GETYPE1A, HCV genotype 1a replicon luciferase assay, range class, read-out: LE_1a (EC50, range)): < 5.46 nM |
| COc1cc2ccnc(O[C@@H]3C[C@H]4C(=O)N[C@]5(C(=O)NS(=O)(=O)C6(CF)CC6)C[C@H]5/C=C\CC[C@@H](C)C[C@@H](C)[C@H](NC(=O)OC(C)(C)C(F)(F)F)C(=O)N4C3)c2cc1F [Compound 1185] | 0.51 to 1 | 1.01 to 5 |  |  | EC50 ([1]; GETYPE1B, HCV genotype 1b replicon luciferase, read-out: LE_1b (EC50)): 0.83 nM; EC50 ([2]; GETYPE1A, HCV genotype 1a replicon luciferase, read-out: LE_1a (EC50)): 2.91 nM |
| CC(C)Oc1cc2ccccc2c(O[C@@H]2C[C@H]3C(=O)N[C@]4(C(=O)NS(=O)(=O)C5(CF)CC5)C[C@H]4/C=C\CC[C@@H](C)C[C@@H](C)[C@H](NC(=O)OC(C)(C)C(F)(F)F)C(=O)N3C2)n1 [Compound 6116, 1,1,1-trifluoro-2-methylpropan-2-yl((2R,6S,7R,9R,13aS,14aR,16aS,Z)-14a-(((1-(fluoromethyl)cyclopropyl)sulfonyl)carbamoyl)-2-((3-isopropoxyisoquinolin-1-yl)oxy)-7,9-dimethyl-5,16-dioxo-1,2,3,5,6,7,8,9,10,11,13a,14,14a,15,16,16a-hexadecahydrocyclopropa[e]pyrrolo[1,2-a][1,4]diazacyclopentadecin-6-yl)carbamate] |  |  | 1.01 to 5 | 1.01 to 5 |  |
| [2H]C([2H])([2H])C(OC(=O)N[C@@H]1C(=O)N2C[C@H](Oc3nc(N(C)C)cc4cc(OC)ccc34)C[C@H]2C(=O)N[C@]2(C(=O)NS(=O)(=O)C3(C)CC3)C[C@H]2/C=C\CC[C@H](C)C[C@H]1C)(C([2H])([2H])[2H])C(F)(F)F [Compound 3114, 1,1,1,3,3,3-hexadeutero-2-(trifluoromethyl)propan-2-yl((2R,6S,7R,9S,13aS,14aR,16aS,Z)-2-((3-(dimethylamino)-6-methoxyisoquinolin-1-yl)oxy)-7,9-dimethyl-14a-(((1-methylcyclopropyl)sulfonyl)carbamoyl)-5,16-dioxo-1,2,3,5,6,7,8,9,10,11,13a,14,14a,15,16,16a-hexadecahydrocyclopropa[e]pyrrolo[1,2-a][1,4]diazacyclopentadecin-6-yl)carbamate] |  |  |  |  | EC50 [1, 7]: 4.82 to 103 nM; EC50 [2, 8]: 4.82 to 103 nM |
| COc1ccc2c(O[C@@H]3C[C@H]4C(=O)N[C@]5(C(=O)NS(=O)(=O)C6(C)CC6)C[C@H]5/C=C\CC[C@H](C)C[C@@H](C)[C@H](NC(=O)OC(C)(C)C)C(=O)N4C3)nc(N(C)C)cc2c1 [Compound 3108, tert-butyl ((2R,6S,7R,9S,13aS,14aR,16aS,Z)-2-((3-(dimethylamino)-6-methoxyisoquinolin-1-yl)oxy)-7,9-dimethyl-14a-(((1-methylcyclopropyl)sulfonyl)carbamoyl)-5,16-dioxo-1,2,3,5,6,7,8,9,10,11,13a,14,14a,15,16,16a-hexadecahydrocyclopropa[e]pyrrolo[1,2-a][1,4]diazacyclopentadecin-6-yl)carbamate] |  |  |  |  | EC50 [1, 7]: 4.82 to 103 nM; EC50 [2, 8]: 4.82 to 103 nM |
| CC[C@@H]1C[C@H](C)CC/C=C\[C@@H]2C[C@@]2(C(=O)NS(=O)(=O)C2(C)CC2)NC(=O)[C@@H]2C[C@@H](Oc3nc(OC)cc4cc(OC)c(F)cc34)CN2C(=O)[C@H]1NC(=O)OC(C)(C)C(F)(F)F [Compound 1187] | 1.01 to 5 | 5.01 to 35 |  |  |  |
| CCCOc1cnc(O[C@@H]2C[C@H]3C(=O)N[C@]4(C(=O)NS(=O)(=O)C5(C)CC5)C[C@H]4/C=C\CC[C@@H](C)C[C@@H](C)[C@H](NC(=O)O[C@@H]4C[C@@H]5C[C@@H]5C4)C(=O)N3C2)c2ccccc12 [Compound 5081, (1R,3r,5S)-bicyclo[3.1.0]hexan-3-yl((2R,6S,7R,9R,13aS,14aR,16aS,Z)-7,9-dimethyl-14a-(((1-methylcyclopropyl)sulfonyl)carbamoyl)-5,16-dioxo-2-((4-propoxyisoquinolin-1-yl)oxy)-1,2,3,5,6,7,8,9,10,11,13a,14,14a,15,16,16a-hexadecahydrocyclopropa[e]pyrrolo[1,2-a][1,4]diazacyclopentadecin-6-yl)carbamate] |  |  | < 5.46 | 4.82 to 103 |  |
| C[C@@H]1CC/C=C\[C@@H]2C[C@@]2(C(=O)NS(=O)(=O)C2(CF)CC2)NC(=O)[C@@H]2C[C@@H](Oc3nc4c(c5ccccc35)CCCO4)CN2C(=O)[C@@H](NC(=O)OC(C)(C)C(F)F)[C@H](C)C1 [Compound 6074, 1,1-difluoro-2-methylpropan-2-yl((2R,6S,7R,9R,13aS,14aR,16aS,Z)-2-((2,3-dihydro-1H-pyrano[2,3-c]isoquinolin-6-yl)oxy)-14a-(((1-(fluoromethyl)cyclopropyl)sulfonyl)carbamoyl)-7,9-dimethyl-5,16-dioxo-1,2,3,5,6,7,8,9,10,11,13a,14,14a,15,16,16a-hexadecahydrocyclopropa[e]pyrrolo[1,2-a][1,4]diazacyclopentadecin-6-yl)carbamate] |  |  | 1.01 to 5 | 0.51 to 1 |  |
| COc1ccc2c(O[C@@H]3C[C@H]4C(=O)N[C@]5(C(=O)NS(=O)(=O)C6(C)CC6)C[C@H]5/C=C\CC[C@@H](C)C[C@@H](C)[C@H](NC(=O)OC(C)(C)C(F)(F)F)C(=O)N4C3)nc(-c3ccc(C(C)(C)C)cc3)cc2c1 [Compound 4079] | 4.82 to 103 | 4.82 to 103 |  |  |  |
| CC[C@@H]1C[C@@H](C)CC/C=C\[C@@H]2C[C@@]2(C(=O)NS(=O)(=O)C2(C)CC2)NC(=O)[C@@H]2C[C@@H](Oc3nc(OC)cc4cc(OC)ccc34)CN2C(=O)[C@H]1NC(=O)OC1(C(F)(F)F)COC1 [Compound 1121, 3-(trifluoromethyl)oxetan-3-yl((2R,6S,7R,9S,13aS,14aR,16aS,Z)-2-((3,6-dimethoxyisoquinolin-1-yl)oxy)-7-ethyl-9-methyl-14a-(((1-methylcyclopropyl)sulfonyl)carbamoyl)-5,16-dioxo-1,2,3,5,6,7,8,9,10,11,13a,14,14a,15,16,16a-hexadecahydrocyclopropa[e]pyrrolo[1,2-a][1,4]diazacyclopentadecin-6-yl)carbamate] |  |  |  |  | EC50 [1, 7]: < 5.46 nM; EC50 [2, 8]: < 5.46 nM |
| COc1ccc2c(O[C@@H]3C[C@H]4C(=O)N[C@]5(C(=O)NS(=O)(=O)C6(C)CC6)C[C@H]5/C=C\CC[C@@H](C)C[C@@H](C)[C@H](NC(=O)OC(C)(C)C(F)(F)F)C(=O)N4C3)ncc(OC(=O)OC(C)(C)C(F)(F)F)c2c1 [Compound 4106] | 4.82 to 103 | 4.82 to 103 |  |  |  |
| CC[C@@H]1C[C@@H](C)CC/C=C\[C@@H]2C[C@@]2(C(=O)NS(=O)(=O)C2CC2)NC(=O)[C@@H]2C[C@@H](Oc3nccc4c5c(ccc34)OCCO5)CN2C(=O)[C@H]1NC(=O)OC(C)(C)C(F)(F)F [Compound 5337, 1,1,1-trifluoro-2-methylpropan-2-yl((2R,6S,7R,9S,13aS,14aR,16aS,Z)-14a-((cyclopropylsulfonyl)carbamoyl)-2-((2,3-dihydro-[1,4]dioxino[2,3-f]isoquinolin-7-yl)oxy)-7-ethyl-9-methyl-5,16-dioxo-1,2,3,5,6,7,8,9,10,11,13a,14,14a,15,16,16a-hexadecahydrocyclopropa[e]pyrrolo[1,2-a][1,4]diazacyclopentadecin-6-yl)carbamate] |  |  | < 5.46 | 4.82 to 103 |  |
| C[C@@H]1CC/C=C\[C@@H]2C[C@@]2(C(=O)NS(=O)(=O)C2CC2)NC(=O)[C@@H]2C[C@@H](Oc3nccc4ccc(F)cc34)CN2C(=O)[C@@H](NC(=O)OC(C)(C)C)[C@H](C)C1 [Compound 4071, tert-butyl (2R,6S,7R,9R,13aS,14aR,16aS,Z)-14a-(cyclopropylsulfonylcarbamoyl)-2-(7-fluoroisoquinolin-1-yloxy)-7,9-dimethyl-5,16-dioxo-1,2,3,5,6,7,8,9,10,11,13a,14,14a,15,16,16a-hexadecahydrocyclopropa[e]pyrrolo[1,2-a][1,4]diazacyclopentadecin-6-ylcarbamate] |  |  | < 5.46 | < 5.46 |  |
| COc1ccc2c(O[C@@H]3C[C@H]4C(=O)N[C@]5(C(=O)NS(=O)(=O)C6(C)CC6)C[C@H]5/C=C\CC[C@H](C)C[C@@H](C)[C@H](NC(=O)OC(C)(C)C(F)(F)F)C(=O)N4C3)nc(-c3ccc(N4CCOCC4)cc3)cc2c1 [Compound 5198, 1,1,1-trifluoro-2-methylpropan-2-yl((2R,6S,7R,9S,13aS,14aR,16aS,Z)-2-((6-methoxy-3-(4-morpholinophenyl)isoquinolin-1-yl)oxy)-7,9-dimethyl-14a-(((1-methylcyclopropyl)sulfonyl)carbamoyl)-5,16-dioxo-1,2,3,5,6,7,8,9,10,11,13a,14,14a,15,16,16a-hexadecahydrocyclopropa[e]pyrrolo[1,2-a][1,4]diazacyclopentadecin-6-yl)carbamate] |  |  | < 5.46 | 4.82 to 103 |  |
